Activity calls are given as the source filed them. The calls are words filed in the database; no cut-off is given here.
Columns and labels:
[1] = target: T1, Non-reducing end beta-L-arabinofuranosidase (Bifidobacterium longum subsp. longum) (UniProt E8MGH8); assay: Inhibition of C-terminal-His6-tagged Bifidobacterium longum HypBA1 expressed in Escherichia coli C43 (DE3) cells […] using L-Araf3-Hyp as substrate preincubated with enzyme for 2 hrs followed by substrate addition and measured after 24 hrs by spectrophotometric analysis; details: time 26.0 hrs
T1 sequence (whole entry): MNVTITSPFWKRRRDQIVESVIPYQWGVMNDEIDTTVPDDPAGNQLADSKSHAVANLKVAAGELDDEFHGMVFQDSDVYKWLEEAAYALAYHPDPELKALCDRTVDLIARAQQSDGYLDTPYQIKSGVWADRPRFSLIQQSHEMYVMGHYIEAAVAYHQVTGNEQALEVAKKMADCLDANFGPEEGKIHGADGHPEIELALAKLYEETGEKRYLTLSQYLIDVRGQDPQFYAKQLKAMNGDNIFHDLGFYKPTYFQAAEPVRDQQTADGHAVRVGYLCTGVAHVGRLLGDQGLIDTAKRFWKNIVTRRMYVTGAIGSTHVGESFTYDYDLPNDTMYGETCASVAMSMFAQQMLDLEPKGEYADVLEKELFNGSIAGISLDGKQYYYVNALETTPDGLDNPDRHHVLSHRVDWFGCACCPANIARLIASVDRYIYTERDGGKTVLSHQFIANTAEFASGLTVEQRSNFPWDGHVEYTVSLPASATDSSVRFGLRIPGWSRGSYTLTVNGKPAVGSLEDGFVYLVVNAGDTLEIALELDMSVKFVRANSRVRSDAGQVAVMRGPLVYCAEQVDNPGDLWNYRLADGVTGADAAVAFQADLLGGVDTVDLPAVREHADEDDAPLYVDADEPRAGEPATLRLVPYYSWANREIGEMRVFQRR

[2] = target: T1, Non-reducing end beta-L-arabinofuranosidase (Bifidobacterium longum subsp. longum); assay: Inhibition of C-terminal-His6-tagged Bifidobacterium longum HypBA1 expressed in Escherichia coli C43 (DE3) cells assessed as reduction in pNP liberation using pNP-beta-L-Araf as substrate at 0.1 to 1 mM preincubated with enzyme for 2 hrs followed by substrate addition and measured after 24 hrs by spectrophotometric analysis; details: dose 0.1-1 mM, time 26.0 hrs
[3] = Drug metabolism assessed as hydrolysed metabolite formation at 10 mM incubated for 24 hrs in presence of TCEP by TLC analysis; assay type: ADME; details: 10000 µM
Bifidobacterium longum [4] = assay: Inhibition of Bifidobacterium longum JCM 1217 HypBA1 homologue BLLJ_1848 using S3 as substrate preincubated with enzyme followed by substrate addition for 30 mins in presence of TCEP by HPLC-FLD analysis
[5] = Substrate activity at Bifidobacterium longum JCM 1217 HypBA1 homologue BLLJ_1848 at 10 mM incubated for 24 hrs in presence of TCEP by TLC analysis; assay type: ADME; details: 10000 µM
Bifidobacterium longum [6] = assay: Inhibition of Bifidobacterium longum JCM 1217 HypBA1 homologue BLLJ_1848 using S3 as substrate preincubated with enzyme followed by substrate addition for 30 mins in absence of TCEP by HPLC-FLD analysis
[7] = Substrate activity at Bifidobacterium longum JCM 1217 HypBA1 homologue BLLJ_1848 at 10 mM incubated for 24 hrs in absence of TCEP by TLC analysis; assay type: ADME; details: 10000 µM

| inhibition [1] | inhibition [2] | SMILES | Drug metabolism [3] | Activity [5] | other results |
| --- | --- | --- | --- | --- | --- |
| Active |  | O=C(CCl)N[C@@H]1O[C@@H](CO)[C@H](O)[C@H]1O |  |  |  |
|  | Active | O=C(CBr)N[C@H]1O[C@@H](CO)[C@H](O)[C@H]1O |  |  |  |
|  |  | [N-]=[N+]=N[C@@H]1O[C@@H](CO)[C@H](O)[C@H]1O | Metabolite_Detected | Active | inhibition (Bifidobacterium longum [4]): Active; inhibition (Bifidobacterium longum [6]): Active |
|  |  | [N-]=[N+]=N[C@H]1O[C@@H](CO)[C@H](O)[C@H]1O | Metabolite_Detected | Active | Activity [7]: Active |
| Active |  | O=C(CCl)N[C@H]1O[C@@H](CO)[C@H](O)[C@H]1O |  |  |  |
|  | Active | O=C(CBr)N[C@@H]1O[C@@H](CO)[C@H](O)[C@H]1O |  |  |  |
